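The compound was tested at five concentrations on cells cultured in 96-well plates, with a 48-hour exposure period. GI50: concentration for 50% inhibition of growth.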 Active and inactive are the calls of the source. Cut-off read from the data, not from the text of the source: active = GI50 up to about 1.1 µM and inactive = higher.
What was measured:
Experiment in all cases: inhibition of tumour cell growth, NCI panel, 48 h
[1] = system: ACHN
[2] = system: CAKI-1
[3] = system: EKVX
[4] = system: HOP-92
[5] = system: KM12
[6] = system: MCF7
[7] = system: MDA-MB-231
[8] = system: MDA-MB-435
[9] = system: NCI-H522
[10] = system: RPMI-8226
[11] = system: SF-295
[12] = system: SN12C
[13] = system: SNB-19
[14] = system: SNB-75
[15] = system: SW-620
[16] = system: T47D
[17] = system: UACC-257
[18] = system: UO-31
[19] = system: MOLT-4
[20] = system: RXF 393

Row | Compound | GI50 [1] | GI50 [2] | GI50 [3] | GI50 [4] | GI50 [5] | GI50 [6] | GI50 [7] | GI50 [8] | GI50 [9] | GI50 [10] | GI50 [11] | GI50 [12] | GI50 [13] | GI50 [14] | GI50 [15] | GI50 [16] | GI50 [17] | GI50 [18] | GI50 [19] | GI50 [20]
1 | CC(=O)OCC1=CC2OC(=O)C3=COC(OC4OC(CO)C(O)C(O)C4O)C1C32 (configuration not stated) | > 100 µM (inactive) | > 100 µM (inactive) | > 100 µM (inactive) | > 100 µM (inactive) | > 100 µM (inactive) | > 100 µM (inactive) | > 100 µM (inactive) | > 100 µM (inactive) | > 100 µM (inactive) | > 100 µM (inactive) | > 100 µM (inactive) | > 100 µM (inactive) | > 100 µM (inactive) | > 100 µM (inactive) | > 100 µM (inactive) | > 100 µM (inactive) | > 100 µM (inactive) | > 100 µM (inactive) |  | 
2 | COc1ccc(-c2nnc3n(C)c4ccccc4n3c2=O)cc1 | 63 µM (inactive) | 76 µM (inactive) | > 100 µM (inactive) | > 100 µM (inactive) | > 100 µM (inactive) | > 100 µM (inactive) | 18.2 µM (inactive) | > 100 µM (inactive) | 77.8 µM (inactive) |  | 29.7 µM (inactive) | 59 µM (inactive) | 91.8 µM (inactive) | 20.8 µM (inactive) | > 100 µM (inactive) | > 100 µM (inactive) | > 100 µM (inactive) | 42.8 µM (inactive) | > 100 µM (inactive) | 31.1 µM (inactive)
3 | O=C1OCN(c2ccccc2)C12CCN(Cc1ccccc1)CC2 | 49.2 µM (inactive) | 45 µM (inactive) | > 100 µM (inactive) | 39.3 µM (inactive) | 23.7 µM (inactive) | 32.6 µM (inactive) | 21.8 µM (inactive) | 17.1 µM (inactive) |  | 23.7 µM (inactive) | 16.4 µM (inactive) | 42.6 µM (inactive) | 67 µM (inactive) | 19.4 µM (inactive) | 18 µM (inactive) | 23 µM (inactive) | 16.7 µM (inactive) | 51.3 µM (inactive) | 13.6 µM (inactive) | 16.9 µM (inactive)
4 | CC(=O)Nc1ccc(N2C(=O)CS(=O)(=O)C2c2cccc(Oc3ccccc3)c2)cc1 (configuration not stated) | 16.6 µM (inactive) |  | 15.4 µM (inactive) | 13.8 µM (inactive) | 17.2 µM (inactive) | 18.7 µM (inactive) | 17.4 µM (inactive) | 21.2 µM (inactive) | 17.2 µM (inactive) |  | 17 µM (inactive) | 15.1 µM (inactive) | 18 µM (inactive) | 19.4 µM (inactive) | 28.9 µM (inactive) | 15.9 µM (inactive) | 16.8 µM (inactive) | 17.5 µM (inactive) | 29.7 µM (inactive) | 18.9 µM (inactive)
5 | COc1ccccc1/N=N/C(=N\NC(=O)c1ccc(C)cc1)c1ccc(N(CCC#N)CCC#N)cc1C | 89.1 µM (inactive) | > 100 µM (inactive) | > 100 µM (inactive) | > 100 µM (inactive) | 41.6 µM (inactive) | 34.6 µM (inactive) | 47.9 µM (inactive) | 39.5 µM (inactive) |  | 40.4 µM (inactive) | 48.5 µM (inactive) | 39.4 µM (inactive) | 97.3 µM (inactive) | 24.1 µM (inactive) | 47.5 µM (inactive) | 20.8 µM (inactive) | 40.3 µM (inactive) | 61.9 µM (inactive) | 35.2 µM (inactive) | 25.5 µM (inactive)
6 | Cc1ccc2sc3ccc(N)cc3c(=O)c2c1 | 37.8 µM (inactive) | 30.7 µM (inactive) | 21.1 µM (inactive) | 32.9 µM (inactive) | 20.7 µM (inactive) | 26.5 µM (inactive) | 86.7 µM (inactive) | 36.9 µM (inactive) | 30.3 µM (inactive) |  | 40.4 µM (inactive) | 81.1 µM (inactive) | > 100 µM (inactive) |  | 62.1 µM (inactive) | 14.9 µM (inactive) | > 100 µM (inactive) | 29 µM (inactive) | 11.4 µM (inactive) | 38.5 µM (inactive)
7 | C[C@]12CC(c3ccccc3O1)C(C(=O)Nc1nc(C34CC5CC(CC(C5)C3)C4)cs1)C(=O)N2 (some centres not stated) | > 100 µM (inactive) | > 100 µM (inactive) | > 100 µM (inactive) | > 100 µM (inactive) | > 100 µM (inactive) | > 100 µM (inactive) | > 100 µM (inactive) | > 100 µM (inactive) |  | > 100 µM (inactive) |  | > 100 µM (inactive) | > 100 µM (inactive) | > 100 µM (inactive) | > 100 µM (inactive) | > 100 µM (inactive) | > 100 µM (inactive) |  | > 100 µM (inactive) | > 100 µM (inactive)
8 | S=C(N/N=C/c1ccccn1)N1CCCCC1 | < 0.01 µM (active) | < 0.0153 µM (active) | 0.07 µM (active) | 0.212 µM (active) | < 0.0262 µM (active) | < 0.01 µM (active) | < 0.01 µM (active) | 0.163 µM (active) |  | < 0.01 µM (active) | 0.121 µM (active) | < 0.0394 µM (active) | 1.23 µM (inactive) | 0.0315 µM (active) | < 0.0122 µM (active) | < 0.01 µM (active) | < 0.01 µM (active) | 0.0131 µM (active) | < 0.01 µM (active) | 0.0705 µM (active)
9 | COc1ccc(C2SC(=N)Nc3c2c(C)nn3C(=O)c2ccncc2)cc1OC (configuration not stated) | > 10 µM (inactive) | > 10 µM (inactive) | > 10 µM (inactive) | > 10 µM (inactive) | > 10 µM (inactive) | > 10 µM (inactive) | > 10 µM (inactive) | > 10 µM (inactive) | > 10 µM (inactive) | > 10 µM (inactive) | > 10 µM (inactive) | > 10 µM (inactive) | > 10 µM (inactive) | > 10 µM (inactive) | > 10 µM (inactive) | > 10 µM (inactive) | > 10 µM (inactive) |  | > 10 µM (inactive) | > 10 µM (inactive)
10 | COC1CC(n2ccc(=O)[nH]c2=O)OC1CO (configuration not stated) | > 100 µM (inactive) | > 100 µM (inactive) | > 100 µM (inactive) | > 100 µM (inactive) | > 100 µM (inactive) | < 0.01 µM (active) | > 100 µM (inactive) | > 100 µM (inactive) | > 100 µM (inactive) |  | > 100 µM (inactive) | > 100 µM (inactive) | > 100 µM (inactive) |  | > 100 µM (inactive) | > 100 µM (inactive) | > 100 µM (inactive) | > 100 µM (inactive) | > 100 µM (inactive) | > 100 µM (inactive)
11 | CS(=O)(=O)NC12CCC(c3ccccc31)c1ccccc12 | > 100 µM (inactive) | > 100 µM (inactive) | > 100 µM (inactive) | > 100 µM (inactive) | > 100 µM (inactive) | > 100 µM (inactive) | > 100 µM (inactive) | > 100 µM (inactive) | > 100 µM (inactive) | > 100 µM (inactive) |  | > 100 µM (inactive) | > 100 µM (inactive) | > 100 µM (inactive) | > 100 µM (inactive) | > 100 µM (inactive) |  | > 100 µM (inactive) | > 100 µM (inactive) | 
12 | CC1(C)OC(=O)C(=Cc2ccc([N+](=O)[O-])s2)C(=O)O1 | 13.7 µM (inactive) | 15.6 µM (inactive) | 17.1 µM (inactive) | 21.1 µM (inactive) | 14.7 µM (inactive) | 12.7 µM (inactive) | 18.9 µM (inactive) | 14.9 µM (inactive) |  | 8.32 µM (inactive) | 15.7 µM (inactive) | 16.1 µM (inactive) | 16.5 µM (inactive) |  | 1.94 µM (inactive) | 14 µM (inactive) | 18.6 µM (inactive) | 10.8 µM (inactive) | 8.22 µM (inactive) | 
13 | Clc1ccc(OCc2nnc(COc3ccc(OCc4nnc(COc5ccc(Cl)cc5Cl)o4)c(Cl)c3)o2)c(Cl)c1 | 40.6 µM (inactive) | 24.8 µM (inactive) | 13.6 µM (inactive) | 7.48 µM (inactive) | 45.7 µM (inactive) | 32.1 µM (inactive) | 21.7 µM (inactive) | 42.7 µM (inactive) | 18.1 µM (inactive) | 17.3 µM (inactive) | 33.3 µM (inactive) | 40.3 µM (inactive) | 68.4 µM (inactive) |  | 70.1 µM (inactive) | 78.3 µM (inactive) | > 100 µM (inactive) | 17.9 µM (inactive) |  | 20.1 µM (inactive)
14 | S=C(Nc1c2c(nc3ccccc13)CCCC2)Nc1c2c(nc3ccccc13)CCCC2 | > 100 µM (inactive) | > 100 µM (inactive) | > 100 µM (inactive) |  | > 100 µM (inactive) | > 100 µM (inactive) | > 100 µM (inactive) | > 100 µM (inactive) | > 100 µM (inactive) | > 100 µM (inactive) | > 100 µM (inactive) | > 100 µM (inactive) | > 100 µM (inactive) | > 100 µM (inactive) | > 100 µM (inactive) | > 100 µM (inactive) | > 100 µM (inactive) | > 100 µM (inactive) | > 100 µM (inactive) | > 100 µM (inactive)
15 | COC1CC2CCC(C)[C@](O)(O2)C(=O)C(=O)N2CCCCC2C(=O)OC(C(C)CC2CCC(O)C(OC)C2)CC(=O)C(C)C=C(C)C(OC(=O)CN(C)C)C(OC)C(=O)C(C)CC(C)/C=C/C=C/C=C\1C (some centres not stated) | 0.0101 µM (active) |  | < 0.01 µM (active) | < 0.01 µM (active) | 9.59 µM (inactive) | < 0.01 µM (active) | 3.67 µM (inactive) | 2.69 µM (inactive) | 3.94 µM (inactive) | < 0.01 µM (active) | < 0.01 µM (active) |  | < 0.01 µM (active) | < 0.01 µM (active) |  | < 0.01 µM (active) | 11.3 µM (inactive) | < 0.01 µM (active) | < 0.01 µM (active) | < 0.01 µM (active)

From ChEMBL document CHEMBL1201862, “PubChem BioAssay data set” (2004)
